This note sets out measurements from ChEMBL document CHEMBL5107971, “RpoN-Based stapled peptides with improved DNA binding suppress Pseudomonas aeruginosa virulence” (RSC Med Chem, 2022).

Calls of active or inactive are those of the source. No cut-off for these calls is given here. Numbered stars: 1 amine (or outer) side, 2 acyl side, 3 side chain; on linkers, the order of the positions; unused ones are H or OH. Bridge positions count the residues as written; N and C are the ends. Square brackets hold non-standard residues; d marks the D form. Peptide text beside a SMILES is read from it. X1 = CC(C)[C@@H](CN[*:1])C(=O)[*:2]; S5 = C=CCCC[C@](C)(N)C(=O)O; Nle = CCCC[C@H](N)C(=O)O; Orn = NCCC[C@H](N)C(=O)O; βAla = NCCC(=O)O A value given as a limit tells only on which side of the number the result lay.

The nature of series [1]: Hemolytic activity in human RBC at 100 uM measured after 1 hrs relative to control. The class given is toxicity, cell-based, Erythrocyte. Particulars: red blood cells (erythrocytes), read-out: Activity.
Series [2] concerns the target dsDNA. The series is described as follows: Binding affinity to FITC-labelled dsDNA (unknown origin) assessed as dissociation constant incubated for 10 mins by fluorescence polarization assay. In kind it is nucleic-acid assay. Background: Polarisation of emitted light reports the rotation of a fluorescent probe.
Series [3] relates to Pseudomonas aeruginosa. The series is described as follows: Antibacterial activity against Pseudomonas aeruginosa assessed as inhibition of cell growth upto 32 ug/ml incubated overnight by microtiter broth dilution assay. In kind it is functional. Particulars: dose <= 32 µg/ml. (In general: Dilution methods test growth across graded concentrations, often in twofold steps.)
Series [4] has as its system DNA. The experiment in a line: Inhibition of RpoN-mediated GlnAp2 transcription in Escherichia coli XL-1 Blue expressing GFP assessed as decrease in GFP levels at 10 uM incubated for 4 hrs under minimal nitrogen media by fluorescence based assay relative to control. The class given is nucleic-acid assay.
The nature of series [5]: Toxicity in Galleria mellonella larvae assessed as survivability at 10 mg/kg administered intra-hemocoelicly and measured after 24 hrs. Particulars: in vivo, other. In kind it is organism-based.
For series [6], the system named is Pseudomonas aeruginosa. The series is described as follows: Antibacterial activity against Pseudomonas aeruginosa infected in Galleria mellonella larvae assessed as enhancement of survival rate at 10 mg/kg administered intra-hemocoelicly and measured after 24 hrs relative to control. The class given is functional.
Series [7] concerns Pseudomonas aeruginosa. The series is described as follows: Antibacterial activity against Pseudomonas aeruginosa infected in Galleria mellonella larvae assessed as enhancement of survival rate at 10 mg/kg administered intra-hemocoelicly and measured after 36 hrs relative to control. In kind it is functional.

With `CCCC[C@H](NC(=O)[C@H](CCC(=O)O)NC(=O)[C@H](CCCNC(=N)N)NC(=O)[C@H](Cc1ccc(O)cc1)NC(=O)[C@H](CCCCN)NC(=O)[C@H](C)NC(=O)[C@@H](NC(=O)[C@@H](NC(=O)[C@H](CCCNC(=N)N)NC(=O)[C@H](CCCNC(=N)N)NC(=O)[C@H](C)NC(=O)[C@@H](NC(=O)[C@H](CCCCN)NC(=O)[C@H](Cc1ccccc1)NC(=O)CCNC(C)=O)C(C)C)[C@@H](C)O)C(C)C)C(=O)N[C@@H](CC(C)C)C(N)=O` (Ac-[βAla]FKVARRTVAKYRE[Nle]L-NH2), in series [1], the hemolysis at 1 h, 100 µM turned out to be 0.12%.

`CCCC[C@H](NC(=O)[C@H](CCC(=O)O)NC(=O)[C@H](CCCNC(=N)N)NC(=O)[C@H](Cc1ccc(O)cc1)NC(=O)[C@H](CCCCN)NC(=O)[C@H](C)NC(=O)[C@]1(C)CCC/C=C\CCC[C@](C)(NC(=O)[C@@H](NC(=O)[C@H](CCCCN)NC(=O)[C@H](Cc2ccccc2)NC(=O)CCNC(C)=O)C(C)C)C(=O)N[C@@H](CCCCN)C(=O)N[C@@H](CCCNC(=N)N)C(=O)N[C@@H]([C@@H](C)O)C(=O)N1)C(=O)N[C@@H](CC(C)C)C(N)=O` (Ac-[βAla]FKV[S5]KRT[S5]AKYRE[Nle]L-NH2; staple (Z) 5-9): the hemolysis at 1 h, 100 µM in series [1] turned out to be 3.3%. Further, the Kd in series [2] worked out at 1680 nM. In addition, in series [3], the MIC was > 32 µg/mL. Moreover, the inhibition result in series [4] was “Active”.

In the case of `CCCC[C@H](NC(=O)[C@H](CCC(=O)O)NC(=O)[C@H](CCCNC(=N)N)NC(=O)[C@]1(C)CCC/C=C\CCC[C@](C)(NC(=O)[C@H](CCCNC(=N)N)NC(=O)[C@H](CCCNC(=N)N)NC(=O)[C@H](C)NC(=O)[C@@H](NC(=O)[C@H](CCCCN)NC(=O)[C@H](Cc2ccccc2)NC(=O)CCNC(C)=O)C(C)C)C(=O)N[C@@H](C(C)C)C(=O)N[C@@H](C)C(=O)N[C@@H](CCCCN)C(=O)N1)C(=O)N[C@@H](CC(C)C)C(N)=O` (Ac-[βAla]FKVARR[S5]VAK[S5]RE[Nle]L-NH2; staple (Z) 8-12), in series [1], the hemolysis at 1 h, 100 µM came out at 10.7%. In addition, the dissociation constant (Kd) in series [2] was 366 nM. For the same molecule, the MIC in series [3] is > 32 µg/mL. Besides, the inhibition entry in series [4] was “Active”. Also, the Activity entry in series [5] is on record as “Non-Toxic”. Besides, the outcome in series [6] was Active.

Take `CCCC[C@H](NC(=O)[C@H](CCC(=O)O)NC(=O)[C@H](CCCNC(=N)N)NC(=O)[C@H](Cc1ccc(O)cc1)NC(=O)[C@H](CCCCN)NC(=O)[C@H](C)NC(=O)[C@]1(C)CCC/C=C\CCC[C@](C)(NC(=O)[C@@H](NC(=O)[C@H](CCCN)NC(=O)[C@H](Cc2ccccc2)NC(=O)CCNC(C)=O)C(C)C)C(=O)N[C@@H](CCCNC(=N)N)C(=O)N[C@@H](CCCNC(=N)N)C(=O)N[C@@H]([C@@H](C)O)C(=O)N1)C(=O)N[C@@H](CC(C)C)C(N)=O` (Ac-[βAla]F[Orn]V[S5]RRT[S5]AKYRE[Nle]L-NH2; staple (Z) 5-9): in series [4], the inhibition entry is “Active”.

For the molecule `CCCC[C@H](NC(=O)[C@H](CCC(=O)O)NC(=O)[C@H](CCCNC(=N)N)NC(=O)[C@H](Cc1ccc(O)cc1)NC(=O)[C@H](CCCCN)NC(=O)[C@H](C)NC(=O)[C@]1(C)CCC/C=C\CCC[C@](C)(NC(=O)[C@H](CNC(=O)[C@H](CCCCN)NC(=O)[C@H](Cc2ccccc2)NC(=O)CCNC(C)=O)C(C)C)C(=O)N[C@@H](CCCNC(=N)N)C(=O)N[C@@H](CCCNC(=N)N)C(=O)N[C@@H]([C@@H](C)O)C(=O)N1)C(N)=O` (Ac-[βAla]FK[X1][S5]RRT[S5]AKYRE[Nle]-NH2; staple (Z) 5-9), the hemolysis at 1 h, 100 µM in series [1] is 35%. For the same molecule, the Kd in series [2] amounted to 385 nM. Besides, in series [3], the MIC was > 32 µg/mL. Moreover, the inhibition entry in series [4] is “Active”. In addition, the Activity result in series [5] is on record as “Non-Toxic”. The outcome in series [6] was Active.

In the case of `CCCC[C@H](NC(=O)[C@H](CCC(=O)O)NC(=O)[C@H](CCCNC(=N)N)NC(=O)[C@@H](Cc1ccc(O)cc1)NC(=O)[C@H](CCCCN)NC(=O)[C@H](C)NC(=O)[C@]1(C)CCC/C=C\CCC[C@](C)(NC(=O)[C@@H](NC(=O)[C@H](CCCCN)NC(=O)CCNC(C)=O)C(C)C)C(=O)N[C@@H](CCCNC(=N)N)C(=O)N[C@@H](CCCNC(=N)N)C(=O)N[C@@H]([C@@H](C)O)C(=O)N1)C(=O)N[C@@H](CC(C)C)C(N)=O`, the inhibition entry in series [4] was “Active”.

`CCCC[C@H](NC(=O)[C@H](CCC(=O)O)NC(=O)[C@H](CCCNC(=N)N)NC(=O)[C@H](Cc1ccc(O)cc1)NC(=O)[C@H](CCCCN)NC(=O)[C@H](C)NC(=O)[C@]1(C)CCC/C=C\CCC[C@](C)(NC(=O)[C@H](C)NC(=O)[C@H](CCCCN)NC(=O)[C@H](Cc2ccccc2)NC(=O)CCNC(C)=O)C(=O)N[C@@H](CCCNC(=N)N)C(=O)N[C@@H](CCCNC(=N)N)C(=O)N[C@@H]([C@@H](C)O)C(=O)N1)C(=O)N[C@@H](CC(C)C)C(N)=O` (Ac-[βAla]FKA[S5]RRT[S5]AKYRE[Nle]L-NH2; staple (Z) 5-9): the inhibition result in series [4] was “Active”.

`CCCC[C@H](NC(=O)[C@H](CCC(=O)O)NC(=O)[C@H](CCCNC(=N)N)NC(=O)[C@H](Cc1ccc(O)cc1)NC(=O)[C@H](CCCCN)NC(=O)[C@H](C)NC(=O)[C@]1(C)CCC/C=C\CCC[C@](C)(NC(=O)[C@@H](NC(=O)[C@H](CCCNC(=N)N)NC(=O)[C@H](Cc2ccccc2)NC(=O)CCNC(C)=O)C(C)C)C(=O)N[C@@H](CCCNC(=N)N)C(=O)N[C@@H](CCCNC(=N)N)C(=O)N[C@@H]([C@@H](C)O)C(=O)N1)C(=O)N[C@@H](CC(C)C)C(N)=O` (Ac-[βAla]FRV[S5]RRT[S5]AKYRE[Nle]L-NH2; staple (Z) 5-9): the hemolysis at 1 h, 100 µM in series [1] was found to be 1.5%. Also, in series [2], the Kd amounted to 346 nM. In series [3], the MIC was > 32 µg/mL. Also, in series [4], the inhibition result was “Active”. Moreover, the Activity entry in series [5] is recorded as “Non-Toxic”; in series [6], 80%; in series [7], 20%.

As to `CCCC[C@H](NC(=O)[C@H](CCC(=O)O)NC(=O)[C@H](CCCNC(=N)N)NC(=O)[C@H](Cc1ccc(O)cc1)NC(=O)[C@H](CCCCN)NC(=O)[C@@H](NC(=O)[C@]1(C)CCC/C=C\CCC[C@](C)(NC(=O)[C@H](C)NC(=O)[C@H](CCCCN)NC(=O)[C@H](Cc2ccccc2)NC(=O)CCNC(C)=O)C(=O)N[C@@H](CCCNC(=N)N)C(=O)N[C@@H](CCCNC(=N)N)C(=O)N[C@@H]([C@@H](C)O)C(=O)N1)C(C)C)C(=O)N[C@@H](CC(C)C)C(N)=O` (Ac-[βAla]FKA[S5]RRT[S5]VKYRE[Nle]L-NH2; staple (Z) 5-9), the inhibition result in series [4] was “Active”.

Turning to `CCCC[C@H](NC(=O)[C@H](CCC(=O)O)NC(=O)[C@H](CCCNC(=N)N)NC(=O)[C@H](Cc1ccc(O)cc1)NC(=O)[C@H](CCCNC(=N)N)NC(=O)[C@H](C)NC(=O)[C@]1(C)CCC/C=C\CCC[C@](C)(NC(=O)[C@@H](NC(=O)[C@H](CCCCN)NC(=O)[C@H](Cc2ccccc2)NC(=O)CCNC(C)=O)C(C)C)C(=O)N[C@@H](CCCNC(=N)N)C(=O)N[C@@H](CCCNC(=N)N)C(=O)N[C@@H]([C@@H](C)O)C(=O)N1)C(=O)N[C@@H](CC(C)C)C(N)=O` (Ac-[βAla]FKV[S5]RRT[S5]ARYRE[Nle]L-NH2; staple (Z) 5-9), the inhibition result in series [4] is “Active”.

As to `CCCC[C@H](NC(=O)[C@H](CCC(=O)O)NC(=O)[C@H](CCCNC(=N)N)NC(=O)[C@H](Cc1ccc(O)cc1)NC(=O)[C@H](CCCCN)NC(=O)CNC(=O)[C@]1(C)CCC/C=C\CCC[C@](C)(NC(=O)[C@@H](NC(=O)[C@H](CCCCN)NC(=O)[C@H](Cc2ccccc2)NC(=O)CCNC(C)=O)C(C)C)C(=O)N[C@@H](CCCNC(=N)N)C(=O)N[C@@H](CCCNC(=N)N)C(=O)N[C@@H]([C@@H](C)O)C(=O)N1)C(=O)N[C@@H](CC(C)C)C(N)=O` (Ac-[βAla]FKV[S5]RRT[S5]GKYRE[Nle]L-NH2; staple (Z) 5-9), the hemolysis at 1 h, 100 µM in series [1] was 0.53%. Besides, the Kd in series [2] was found to be 376 nM. For the same molecule, the MIC in series [3] is > 32 µg/mL. The inhibition result in series [4] was “Active”. In addition, the figures for the Activity entry in series [5], in series [6] and in series [7] were “Non-Toxic”, 80% and 10%, respectively.

Turning to `CCCC[C@H](NC(=O)[C@H](CCC(=O)O)NC(=O)[C@H](CCCNC(=N)N)NC(=O)[C@H](Cc1ccc(O)cc1)NC(=O)[C@H](CCCCN)NC(=O)[C@H](C)NC(=O)[C@]1(C)CCC/C=C\CCC[C@](C)(NC(=O)[C@@H](NC(=O)[C@H](CCCCN)NC(=O)[C@H](Cc2ccccc2)NC(=O)CCNC(C)=O)C(C)C)C(=O)N[C@@H](CCCNC(=N)N)C(=O)N[C@@H](CCCCN)C(=O)N[C@@H]([C@@H](C)O)C(=O)N1)C(=O)N[C@@H](CC(C)C)C(N)=O` (Ac-[βAla]FKV[S5]RKT[S5]AKYRE[Nle]L-NH2; staple (Z) 5-9), in series [1], the hemolysis at 1 h, 100 µM turned out to be 3.3%. Moreover, in series [2], the Kd is 947 nM. Besides, the MIC in series [3] was > 32 µg/mL. Also, in series [4], the inhibition entry was “Active”.

Regarding `CCCC[C@H](NC(=O)[C@H](CCC(=O)O)NC(=O)[C@H](CCCNC(=N)N)NC(=O)[C@H](Cc1ccc(O)cc1)NC(=O)[C@H](CCCCN)NC(=O)[C@H](C)NC(=O)[C@]1(C)CCC/C=C\CCC[C@](C)(NC(=O)[C@H](Cc2ccccc2)NC(=O)[C@H](CCCCN)NC(=O)[C@H](Cc2ccccc2)NC(=O)CCNC(C)=O)C(=O)N[C@@H](CCCNC(=N)N)C(=O)N[C@@H](CCCNC(=N)N)C(=O)N[C@@H]([C@@H](C)O)C(=O)N1)C(=O)N[C@@H](CC(C)C)C(N)=O` (Ac-[βAla]FKF[S5]RRT[S5]AKYRE[Nle]L-NH2; staple (Z) 5-9), the inhibition entry in series [4] was “Active”.

In general, Kd refers to a measure of binding affinity in units of concentration. For orientation: MIC means the lowest concentration found to suppress growth.
